Source: the NIST ThermoML archive (doi:10.1021/je060084c)

Key:
[1] = refractive index (Na D-line) (dimensionless); details: 298.15 K; 101.33 kPa; Liquid; Standard Abbe refractometry
[2] = 298.15 K; for mass density: 101.33 kPa, Liquid
[3] = xn = mol fraction of the nth substance listed; details: 298.15 K; for mass density: 101 kPa, Liquid
[4] = refractive index (Na D-line) (dimensionless); xn = mol fraction of the nth substance listed; details: 298.15 K, 101 kPa, Liquid, Standard Abbe refractometry

CC(=O)O [acetic acid]
Details | mass density [kg/m3] | refractive index | surface tension liquid-gas [mN/m]
[1] | – | 1.36969 | –
[2] | 1043.95 | – | 27.08

CC(=O)O [acetic acid] + O
Details | mass density, [3] [kg/m3] | refractive index, [4] | surface tension liquid-gas, [3] [mN/m]
x1 = 0.0001 | – | – | 71.79
x1 = 0.0005 | – | – | 71.18
x1 = 0.0007 | 997.41 | 1.33285 | 71.04
x1 = 0.0008 | – | – | 70.84
x1 = 0.0012 | 997.88 | 1.33312 | 70.37
x1 = 0.006 | 998.92 | 1.33422 | 66.17
x1 = 0.0066 | – | – | 65.76
x1 = 0.0119 | 1000.78 | 1.33576 | 62.57
x1 = 0.0138 | – | – | 61.57
x1 = 0.0234 | – | – | 58.26
x1 = 0.0257 | 1004.39 | 1.33874 | 57.45
x1 = 0.0404 | – | – | 53.14
x1 = 0.0516 | 1011.91 | 1.34364 | 50.64
x1 = 0.0746 | – | – | 47.25
x1 = 0.1086 | – | – | 43.43
x1 = 0.1108 | 1031.57 | 1.35281 | 43.39
x1 = 0.1513 | 1040.9 | 1.35708 | 40.12
x1 = 0.1814 | 1046.55 | 1.36009 | 39.24
x1 = 0.2288 | 1052.46 | 1.36386 | 38.17
x1 = 0.3053 | 1058.74 | 1.36818 | 36.5
x1 = 0.4129 | 1063.49 | 1.3723 | 34.8
x1 = 0.516 | 1064.54 | 1.37456 | 33.23
x1 = 0.6068 | 1063.64 | 1.37543 | 31.87
x1 = 0.7035 | 1061.07 | 1.37543 | 30.32
x1 = 0.8067 | 1057 | 1.37459 | 29.32
x1 = 0.9076 | 1051.89 | 1.37257 | 28.42

CCCC(=O)O [butanoic acid]
Details | mass density [kg/m3] | refractive index | surface tension liquid-gas [mN/m]
[1] | – | 1.39599 | –
[2] | 953.17 | – | 26.19

CCCC(=O)O [butanoic acid] + O
Details | mass density, [3] [kg/m3] | refractive index, [4] | surface tension liquid-gas, [3] [mN/m]
x1 = 4e-05 | 997.14 | 1.33256 | 71.12
x1 = 0.0001 | 997.28 | 1.33259 | 70.47
x1 = 0.0006 | 997.35 | 1.33282 | 66.32
x1 = 0.0016 | 997.39 | 1.33325 | 60.32
x1 = 0.0028 | – | – | 55.12
x1 = 0.0056 | 998.24 | 1.33514 | 46.34
x1 = 0.0075 | – | – | 42.12
x1 = 0.0136 | 999.83 | 1.33877 | 35.88
x1 = 0.0201 | 1000.84 | 1.34064 | 31.94
x1 = 0.0299 | 1001.79 | 1.34506 | 29.24
x1 = 0.048 | 1001.61 | 1.35064 | 28.48
x1 = 0.0596 | 1000.55 | 1.35359 | 28.35
x1 = 0.0865 | 998.76 | 1.35959 | 28.23
x1 = 0.1034 | 997.68 | 1.36283 | 28.15
x1 = 0.2033 | 992.5 | 1.37695 | 27.92
x1 = 0.2997 | 987.71 | 1.38524 | 27.73
x1 = 0.381 | 983.12 | 1.38923 | 27.66
x1 = 0.5038 | 977.2 | 1.3933 | 27.56
x1 = 0.5763 | 973.62 | 1.39471 | 27.42
x1 = 0.7036 | 967.47 | 1.39625 | 27.13
x1 = 0.8019 | 962.35 | 1.39667 | 26.9
x1 = 0.9189 | 957.18 | 1.39654 | 26.51

O=CO [formic acid]
Details | mass density [kg/m3] | refractive index | surface tension liquid-gas [mN/m]
[1] | – | 1.37459 | –
[2] | 1211.29 | – | 38.17

O=CO [formic acid] + O
Details | mass density, [3] [kg/m3] | refractive index, [4] | surface tension liquid-gas, [3] [mN/m]
x1 = 0.0007 | 997.52 | 1.33265 | 71.48
x1 = 0.0015 | 998.02 | 1.33269 | 71.14
x1 = 0.0028 | 998.79 | 1.33271 | 70.65
x1 = 0.0067 | 1001.27 | 1.33343 | 69.45
x1 = 0.0106 | 1003.6 | 1.3344 | 68.59
x1 = 0.0154 | 1006.31 | 1.33496 | 67.53
x1 = 0.0277 | 1013.84 | 1.33633 | 65.46
x1 = 0.0442 | – | – | 63.13
x1 = 0.0538 | 1026.93 | 1.33912 | –
x1 = 0.0755 | – | – | 59.92
x1 = 0.1098 | 1052.76 | 1.34454 | 57.29
x1 = 0.1539 | 1069.49 | 1.34829 | 55.23
x1 = 0.204 | 1086.51 | 1.35223 | 52.74
x1 = 0.3004 | 1114.3 | 1.35863 | 49.18
x1 = 0.4178 | 1141.55 | 1.36478 | 47.25
x1 = 0.5101 | 1158.59 | 1.36885 | 45.73
x1 = 0.6133 | 1174.83 | 1.3722 | 43.41
x1 = 0.7058 | 1187.06 | 1.37444 | 41.42
x1 = 0.8162 | 1198.4 | 1.37543 | 40.12
x1 = 0.8967 | 1204.13 | 1.37543 | 39.13

CCC(=O)O [propanoic acid]
Details | mass density [kg/m3] | refractive index | surface tension liquid-gas [mN/m]
[1] | – | 1.38484 | –
[2] | 988.33 | – | 26.15

CCC(=O)O [propanoic acid] + O
Details | mass density, [3] [kg/m3] | refractive index, [4] | surface tension liquid-gas, [3] [mN/m]
x1 = 0.0008 | 997.47 | 1.33292 | 68.52
x1 = 0.0016 | 997.64 | 1.33304 | 66.47
x1 = 0.0029 | 998.15 | 1.33367 | 63.66
x1 = 0.0044 | 998.68 | 1.33422 | 60.98
x1 = 0.0064 | 999.29 | 1.33485 | 57.91
x1 = 0.0103 | 1000.6 | 1.33606 | 53.54
x1 = 0.0179 | 1002.71 | 1.3385 | 48.16
x1 = 0.0272 | 1005.51 | 1.34145 | 44.12
x1 = 0.047 | 1006.86 | 1.34689 | 38.89
x1 = 0.0618 | 1008.97 | 1.35074 | 36.93
x1 = 0.0989 | 1017.17 | 1.35796 | 34.71
x1 = 0.2016 | 1022.07 | 1.37093 | 32.25
x1 = 0.3008 | 1021.51 | 1.3784 | 31.12
x1 = 0.4003 | 1018.87 | 1.38294 | 30.19
x1 = 0.5009 | 1014.33 | 1.38564 | 29.36
x1 = 0.6039 | 1010.12 | 1.3869 | 28.56
x1 = 0.702 | 1005.03 | 1.38721 | 27.91
x1 = 0.7666 | 1002.83 | 1.38709 | 27.52
x1 = 0.8784 | 996.68 | 1.38599 | 26.92
